{"source": "patent US20120076899A1", "about": "“SHELF STABLE MONATIN SWEETENED BEVERAGE” (Cargill, Incorporated, priority 2009, published 2012)", "test": "Presence of 3-methyl indole in stored monatin samples (GC, mass spectrometry, olfactometry)", "type": "physicochemical", "conditions": "not detected in the initial samples (Day 0) nor in samples stored in the dark", "description": "A compound described as having a musty flavor and odor during some of the organoleptic evaluations is described herein. […] The compound (3-methylindole; 3-MI; skatole) was identified using gas chromatography (GC), mass spectrometry, and olfactometry based on its retention time, mass spectra, and odor profile using the following method.\nThe volatile components from a sample were purged onto an absorbent and then thermally desorb them into the cold GC inlet for subsequent separation and identification by mass spectrometry. Simultaneously, the GC column effluent was split between the mass spec and olfactory port to determine the specific odor characteristics for compounds that contribute to the overall odor of the sample.\nEach sample was extracted and analyzed in duplicate. […]\nEach reconstructed total ion current chromatogram (RTICC) was manually reprocessed to 1) identify the compounds by using olfactory and mass spectral library matching. Compounds that were not detected by olfactory but which gave significant response were also identified, and 2) integrate the peaks to obtain areas for relative comparison to the other samples analyzed. […] Corrected areas for each compound were then converted to graphical form to more easily compare samples analyzed during the test.", "data": [{"smiles": "Cc1c[nH]c2ccccc12", "note": "[3-methylindole]", "values": [{"measurement": "detection of 3-methylindole in stored monatin samples", "value": "only found in samples exposed to light"}]}]}
